# Patent publication US4426390A, “Novel β-lactam compounds, process for producing thereof, and use thereof as medicines” (Sanraku-Ocean Co., Ltd., priority 1980, dated 1984)
# Like-named read-outs stand apart in the source and are kept apart here.
# What was measured:
# [1] = Stability (half life) in phosphate buffers of various pH; format: physicochemical; conditions: phosphate buffer, pH 4 to 9, 28° C.
# Method: By adding 2% sodium hydroxide or 10% hydrochloric acid, the pH of 0.05 M phosphate buffer is adjusted to 4, 5, 6, 7, 8 and 9, respectively, and distributed into test tubes in an amount of 3 ml. Concentrated solution of antibiotic OA-6129A (0.05 ml) is added to each test tube and allowed to stand in a thermostatic chamber of 28° C. The time course curve of the concentration decrease of antibiotic OA-6129A is drawn by spectrophotometric measurement at 300 nm, from which the half life of the antibiotic at the indicated pH is calculated. As a control, antibiotic PS-5, a carbapenem compound described in the above-cited reference is simultaneously tested.
# ddY mice = conditions: mouse, in vivo, ip, 500 mg/kg
# S. aureus Smith = assay: MIC by agar dilution method; format: cell-based; conditions: Staphylococcus aureus, 37° C., 18 hours
# Method: (§1) The MIC is measured by an agar dilution method based on the standard method of the Japanese Society of Chemotherapy (Japanese Society of Chemotherapy: The Revised Method of Determination of MIC Values, Chemotherapy 22, 1126-1128, […]). Specifically, the antibiotic is serially diluted with a 1/50 M phosphate buffer at a pH of 7.3 to prepare a twofold dilution series. One milliliter of each dilution and 9 ml of an agar medium (Heart Infusion Agar; a product of Difco Laboratories) are mixed and allowed to solidify in a Petri dish having a diameter of 9 cm. One loopful of the stock culture of the test microbe is inoculated in trypto-soy buillon (a product of Eiken Kagaku Co., Ltd.) and incubated at 37° C. for 18 hours. The resulting culture broth is diluted to a concentration of about 10^6 cells/ml with physiological saline and inoculated on the agar plate by means of a microplanter.
# Comamonas terrigena B996 = assay: MIC by agar dilution method; format: cell-based; conditions: 37° C., 18 hours
# Method: as §1
# Ser. marcesceus T55 = assay: MIC by agar dilution method; format: cell-based; conditions: 37° C., 18 hours
# Method: as §1
# [2] = test system: Klebsiella pneumoniae K13; assay: MIC by agar dilution method; format: cell-based; conditions: 37° C., 18 hours
# Method: as §1
# [3] = test system: Citrobacter Freundii GN346; assay: MIC by agar dilution method; format: cell-based; conditions: 37° C., 18 hours
# Method: as §1
# S. epidermidis = assay: MIC by agar dilution method; format: cell-based; conditions: Staphylococcus epidermidis, 37° C., 18 hours
# Method: as §1
# Sarcina lutea S19 = assay: MIC by agar dilution method; format: cell-based; conditions: Micrococcus luteus, 37° C., 18 hours
# Method: as §1
# [4] = test system: Staphylococcus aureus 209P; assay: MIC by agar dilution method; format: cell-based; conditions: 37° C., 18 hours
# Method: as §1
# Providencia sp. P8 = assay: MIC by agar dilution method; format: cell-based
# Method: as §1
# Ent. cloacae 45 = assay: MIC by agar dilution method; format: cell-based; conditions: Enterobacter cloacae, 37° C., 18 hours
# Method: as §1
# S. aureus Russell = assay: MIC by agar dilution method; format: cell-based; conditions: Staphylococcus aureus
# Method: as §1
# P. vulgaris GN76 = assay: MIC by agar dilution method; format: cell-based; conditions: Proteus vulgaris, 37° C., 18 hours
# Method: as §1
# P. rettgeri P7 = assay: MIC by agar dilution method; format: cell-based; conditions: Providencia rettgeri
# Method: as §1
# [5] = test system: Enterobacter aerogenes E19; assay: MIC by agar dilution method; format: cell-based; conditions: Klebsiella aerogenes, 37° C., 18 hours
# Method: as §1
# Alcaligenes Faecolis A1 = assay: MIC by agar dilution method; format: cell-based
# Method: as §1
# Proteus mirabilis P6 = assay: MIC by agar dilution method; format: cell-based
# Method: as §1
# [6] = test system: Bacillus subtillis ATCC 6633; assay: MIC by agar dilution method; format: cell-based; conditions: ATCC6633; Bacillus subtillis ATCC 6633; agar dilution, 37° C., 18 hours; read-out: MIC
# Method: as §1
# P. sp. P22 = assay: MIC by agar dilution method; format: cell-based; conditions: 37° C., 18 hours
# Method: as §1
# Escherichia coli K-12 = assay: MIC by agar dilution method; format: cell-based
# Method: as §1
# E. coli RGN823 = assay: MIC by agar dilution method; format: cell-based; conditions: Escherichia coli, 37° C., 18 hours
# Method: as §1
# [7] = test system: Pseudomonas aenginosa IFO3445; assay: MIC by agar dilution method; format: cell-based; conditions: 37° C., 18 hours
# Method: as §1
# Serratia marcesceus S18 = assay: MIC by agar dilution method; format: cell-based; conditions: 37° C., 18 hours
# Method: as §1
# Ps. aeruginosa NCTC10490 = assay: MIC by agar dilution method; format: cell-based; conditions: Pseudomonas aeruginosa, 37° C., 18 hours
# Method: as §1
# Ent. sp. E8 = assay: MIC by agar dilution method; format: cell-based
# Method: as §1
Compound,stability relative to OA-6129A [1],acute toxicity (ddY mice),MIC (S. aureus Smith) [µg/mL],MIC (Comamonas terrigena B996) [µg/mL],MIC (Ser. marcesceus T55) [µg/mL],MIC [2] [µg/mL],MIC [3] [µg/mL],MIC (S. epidermidis) [µg/mL],MIC (Sarcina lutea S19) [µg/mL],MIC [4] [µg/mL],MIC (Ent. cloacae 45) [µg/mL],MIC (P. vulgaris GN76) [µg/mL],MIC [5] [µg/mL],MIC [6] [µg/mL],MIC (P. sp. P22) [µg/mL],MIC (E. coli RGN823) [µg/mL],MIC [7] [µg/mL],MIC (Serratia marcesceus S18) [µg/mL],MIC (Ps. aeruginosa NCTC10490) [µg/mL],further results
CC(OS(=O)(=O)O)[C@@H]1C(=O)N2C(C(=O)O)=C(SCCNC(=O)CCNC(=O)C(O)C(C)(C)CO)C[C@H]12 (relative stereo) [OA-6129C],substantially the same stability as antibiotic OA-6129A,no acute toxicity is observed,0.78,0.1,12.5,12.5,50,3.13,0.78,0.1,50,1.56,6.25,0.1,0.78,0.39,50,12.5,> 50,"MIC (Providencia sp. P8; Providencia sp. P8, agar dilution, 37° C., 18 hours, read-out: MIC): 0.2 µg/mL; MIC (S. aureus Russell; 18 h): 3.13 µg/mL; MIC (P. rettgeri P7; P. rettgeri P7, agar dilution, 37° C., 18 hours, read-out: MIC): 0.2 µg/mL; MIC (Alcaligenes Faecolis A1; Alcaligenes Faecolis A1, agar dilution, 37° C., 18 hours, read-out: MIC): 0.39 µg/mL; MIC (Proteus mirabilis P6; Proteus mirabilis P6, agar dilution, 37° C., 18 hours, read-out: MIC): 0.78 µg/mL; MIC (Escherichia coli K-12; K12, Escherichia coli K-12, agar dilution, 37° C., 18 hours, read-out: MIC): 0.78 µg/mL; MIC (Ent. sp. E8; Ent. sp. E8, agar dilution, 37° C., 18 hours, read-out: MIC): 1.56 µg/mL"
"Cc1nnc(SCC2=C(C(=O)O)N3C(=O)[C@@H](NC(=O)Cn4cnnn4)[C@H]3SC2)s1 [CEZ, reference compound]",–,–,0.2,0.05,> 400,25,> 400,0.2,0.39,0.1,> 400,> 400,> 400,0.1,> 400,1.56,> 400,> 400,> 400,"MIC (Providencia sp. P8; Providencia, SP.P8, 18 h): 1.56 µg/mL; MIC (S. aureus Russell; S. aureus Russell, agar dilution, 37° C., 18 hours, read-out: MIC): 0.2 µg/mL; MIC (P. rettgeri P7; P7, 18 h): 3.13 µg/mL; MIC (Alcaligenes Faecolis A1; Alcaligenes, 18 h): 3.13 µg/mL; MIC (Proteus mirabilis P6; Proteus mirabilis, P6, 18 h): 3.13 µg/mL; MIC (Escherichia coli K-12; Escherichia coli, K12, 18 h): 0.78 µg/mL; MIC (Ent. sp. E8; 18 h): 3.13 µg/mL"
CC(O)C1C(=O)N2C(C(=O)O)=C(SCCNC(=O)CCNC(=O)C(O)C(C)(C)CO)CC12 (stereo not shown) [OA-6129B],substantially the same stability as antibiotic OA-6129A,no acute toxicity is observed,–,–,–,–,–,–,–,–,–,–,–,–,–,–,–,–,–,–
